Results as given in patent publication US20250230159A1, “FUSED HETEROCYCLIC COMPOUNDS AS MODULATORS OF RAS SIGNALLING” (Shenzhen Ionova Life Science Co., Ltd., priority 2022, published 2025).
Where two headings read alike, the source gives them in different places.

Experiments:
[1] = target: KRAS-G12C/SOS1 interaction (Homo sapiens (Human), UniProt Q07889); test: Protein-Protein Interaction (PPI) assay, SOS1-KRAS binding assay kit (HTRF)
Experimental: This Example illustrates that exemplary compounds of the present invention blockade the interaction of SOS1 to KRAS protein.
The ability of a compound of Formula (I) to block the interaction of SOS1 to KRAS was measured using a SOS1-KRAS binding assay kit (CAT #63ADK000CB16PEG, Cisbio). Utilizing HTRF (Homogeneous Time-resolved Fluorescence) technology, the assay enables simple and rapid characterization of compound and antibody blockers in a high throughput format. The interaction between Tag1-SOS1 and Tag2-KRAS-G12C is detected by using anti-Tag1-Terbium antibody (HTRF donor) and anti-Tag2-XL665 antibody (HTRF acceptor). When the donor and acceptor antibodies are brought into close proximity due to SOS1 and KRAS-G12C binding, excitation of the donor antibody triggers fluorescent resonance energy transfer (FRET) towards the acceptor antibody, which in turn emits specifically at 665 nm. This specific signal is directly proportional to the extent of KRAS-G12C/SOS1 interaction.
The assay was carried according to the manufacturer's instructions. Compounds at an initial concentration of 10 mM in DMSO were first serially diluted on a 384-well plate using assay buffer at a ratio of 1:3 for a total of 9 concentrations with each of a volume of 20 μL. Blank buffer was included as the negative control. The final compound solution was in the buffer solution with 1% DMSO. Then, in each well of a 384-well plate, a solution of 2 μL compound solution, 4 μL tagged SOS1 and KRAS (G12C) protein stocks, respectively, and 10 μM GTP was incubated for 15 min. 10 μL mixture of […] antibody and anti-Tag1-Terbium antibody was introduced to each individual well. After 2 hours incubation at room temperature, fluorescence readout was measured with a Pelkin Elmer multiple plate reader VICTOR Nivo.
Excitation was from over a range of 245-395 nm, and emission from the donor (emission 1) was detected at […] and emission from the acceptor (emission 2) was detected at (606.5-623.5) nm. The HTRF ratio was calculated using the formula: (emission 1 @665 nm/emission 2 @620 nm)×10000. Thus, compounds blocking KRAS-G12C/SOS1 interaction will cause a reduction in HTRF signal ratio. The IC50 values were then calculated with the Graph pad Prism software.

pERK in Hela cells = test: Phospho-ERK (p-ERK) assay in Hela cells; type: cell-based; conditions: Homo sapiens, β-actin normalized
Experimental: This Example illustrates that exemplary compounds of the present invention prevent KRas-mediated GTP nucleotide exchange mediated by SOS1 to inhibit KRas activity, thereby inhibiting the generation of the downstream effector pERK.
Hela cells (23,000/w) were seeded in a black clear flat bottom 96-well cell culture plate (Corning, #3904) and incubated at 37° C. overnight. At day 2, cells were dosed with compounds of Formula (I) with a 10 μM starting concentration and serially diluted 3× for a total of 9 concentrations. The cells were incubated for 1 hour with the compounds solubilized in DMSO at 37° C. Cells were immediately fixed by adding 100 μL of 8% formaldehyde to all wells in a fume hood and the plates were incubated for 1 hr at room temperature. The formaldehyde was discarded from the plates and washed 5 times and each time for 5 min with 200 μL of Triton Washing Solution (0.1% Triton in PBS) each time to permeabilize the cells. Cells were then blocked with 150 μL of Odyssey blocking buffer (LI-COR Biosciences #927-50010) at room temperature on a shaker. The blocking buffer was discarded and 50 μL of primary antibodies pERK (cell signaling Technology #4370; Rabbit, 1:500) and β-actin (AF5001; Mouse, 1:2000) diluted in Odyssey blocking buffer was added. The plates were incubated overnight at 4° C. on a shaker.
On day 3, the primary antibody solution was removed. Each plate was washed 5× times with 200 μL of 1×PBST (PBS+0.1% Tween 20) and incubated with 50 μL of secondary antibodies: Anti-Rabbit (LI-COR Biosciences #926-32211) and Anti-Mouse (LI-COR Biosciences #68070) at 1:1000 dilution in Odyssey blocking buffer at room temperature on a shaker for 1 hour (protected from light). The secondary antibody solution as removed and each plate was washed with PBST 5× times. Any liquid remaining was discarded and the plate was imaged using the Licor Odyssey machine according to the manufacturer's instruction, using a set focus length at 3.5 mm and both 800 nm and 700 nm filters. The 3-actin normalized scan values for each well were divided by the average of vehicle wells to get the % of p-ERK inhibition. The IC50 values were then calculated with the Graph pad Prism software. In general, p-ERK IC50 data are in line with the PPI IC50 data.

Chain of KRAS-G12C/SOS1 interaction (Q07889 whole entry, stated change not applied): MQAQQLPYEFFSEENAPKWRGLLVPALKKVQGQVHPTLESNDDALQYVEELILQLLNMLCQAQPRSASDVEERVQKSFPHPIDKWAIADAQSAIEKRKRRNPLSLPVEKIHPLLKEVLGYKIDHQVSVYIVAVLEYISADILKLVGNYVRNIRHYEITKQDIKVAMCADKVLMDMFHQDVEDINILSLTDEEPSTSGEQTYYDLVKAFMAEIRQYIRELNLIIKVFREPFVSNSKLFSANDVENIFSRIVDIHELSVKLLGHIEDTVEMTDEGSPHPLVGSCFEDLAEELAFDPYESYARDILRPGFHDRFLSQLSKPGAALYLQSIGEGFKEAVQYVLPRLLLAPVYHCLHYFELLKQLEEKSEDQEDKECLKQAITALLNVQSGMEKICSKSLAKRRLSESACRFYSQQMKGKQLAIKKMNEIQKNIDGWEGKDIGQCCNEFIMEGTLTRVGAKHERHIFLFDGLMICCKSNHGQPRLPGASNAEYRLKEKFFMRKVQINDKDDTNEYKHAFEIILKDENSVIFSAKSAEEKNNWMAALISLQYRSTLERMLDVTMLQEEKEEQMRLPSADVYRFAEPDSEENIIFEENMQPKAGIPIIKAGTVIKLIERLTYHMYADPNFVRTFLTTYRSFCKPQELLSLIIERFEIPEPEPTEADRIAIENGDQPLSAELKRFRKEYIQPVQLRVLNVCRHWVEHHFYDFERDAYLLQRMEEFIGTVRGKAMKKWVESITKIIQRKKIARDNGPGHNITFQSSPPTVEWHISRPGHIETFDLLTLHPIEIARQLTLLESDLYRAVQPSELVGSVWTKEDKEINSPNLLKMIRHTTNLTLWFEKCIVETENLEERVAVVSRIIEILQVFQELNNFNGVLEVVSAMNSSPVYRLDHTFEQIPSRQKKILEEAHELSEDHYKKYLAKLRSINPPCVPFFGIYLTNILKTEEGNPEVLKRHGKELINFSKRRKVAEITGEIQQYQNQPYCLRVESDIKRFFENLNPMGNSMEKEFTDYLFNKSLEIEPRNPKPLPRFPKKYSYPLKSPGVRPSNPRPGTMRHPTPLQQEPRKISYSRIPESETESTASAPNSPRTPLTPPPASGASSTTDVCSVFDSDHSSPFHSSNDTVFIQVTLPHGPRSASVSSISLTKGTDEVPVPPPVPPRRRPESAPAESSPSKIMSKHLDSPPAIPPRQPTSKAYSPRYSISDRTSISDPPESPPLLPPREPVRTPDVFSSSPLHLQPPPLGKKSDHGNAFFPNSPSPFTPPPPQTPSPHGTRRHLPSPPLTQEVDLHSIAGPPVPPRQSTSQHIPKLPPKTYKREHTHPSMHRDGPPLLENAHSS

Compound | IC50 [1] [nM] | IC50 ([1]; read-out: PPI Assay IC50) [nM] | IC50 (pERK in Hela cells; Table 2, 1 hour with compound) [nM] | IC50 (pERK in Hela cells; Table 1, 1 hour with compound) [nM]
CCOC(=O)c1cc2c(N[C@H](C)c3cc(N)cc(C(F)(F)F)c3)nc(C)nc2n2ncnc12 [Example 1, Ethyl (R)-6-((1-(3-amino-5-(trifluoromethyl)phenyl)ethyl)amino)-8-methyl-[1,2,4]triazolo[1′,5′:1,6]pyrido[2,3-d]pyrimidine-4-carboxylate] | > 100 |  | > 100 | 
Cc1nc(N[C@H](C)c2cc(N)cc(C(F)(F)F)c2)c2cc(C(=O)N3CCOCC3)c3ncnn3c2n1 [Example 2, (R)-(6-((1-(3-amino-5-(trifluoromethyl)phenyl)ethyl)amino)-8-methyl-[1,2,4]triazolo[1′,5′:1,6]pyrido[2,3-d]pyrimidin-4-yl)(morpholino)methanone] |  | < 100 |  | > 100
Cc1nc(N[C@H](C)c2cc(N)cc(C(F)(F)F)c2)c2cc(C(=O)N3CCN(C)CC3)c3ncnn3c2n1 [Example 3] |  | < 100 |  | < 100
Cc1nc(N[C@H](C)c2cc(N)cc(C(F)(F)F)c2)c2cc(C(=O)N3CC4(COC4)C3)c3ncnn3c2n1 [Example 6] |  | < 100 |  | < 100
Cc1nc(N[C@H](C)c2cccc(C(F)F)c2F)c2cc(C(=O)N3[C@@H](C)COC[C@@H]3C)c3ncnn3c2n1 [Example 13] |  | < 100 |  | < 100
Cc1nc(N[C@H](C)c2cccc(C(F)F)c2F)c2cc(C(=O)N3CCSCC3)c3ncnn3c2n1 [Example 17] |  | < 100 |  | > 100
CC(=O)N1CCN(C(=O)c2cc3c(N[C@H](C)c4cccc(C(F)F)c4F)nc(C)nc3n3ncnc23)CC1 [Example 20] |  | < 100 |  | > 100
Cc1nc(N[C@H](C)c2cccc(C(F)F)c2F)c2cc(C(=O)N3CCN(C(=O)N(C)C)CC3)c3ncnn3c2n1 [Example 21] |  | < 100 |  | > 100
Cc1nc(N[C@H](C)c2cccc(C(F)F)c2F)c2cc(C(=O)N3CCN(CCO)CC3)c3ncnn3c2n1 [Example 23] |  | < 100 |  | > 100
Cc1nc(N[C@H](C)c2cccc(C(F)F)c2F)c2cc(C(=O)N3CC4(COC4)C3)c3ncnn3c2n1 [Example 27] |  | < 100 |  | < 100
Cc1nc(N[C@H](C)c2cccc(C(F)F)c2F)c2cc(C(=O)N3CCCC34CCOC4)c3ncnn3c2n1 (stereo partly drawn) [Example 31] |  | < 100 |  | > 100
Cc1nc(N[C@H](C)c2cccc(C(F)F)c2F)c2cc(C(=O)N3CC4CC(C3)O4)c3ncnn3c2n1 [Example 35] |  | < 100 |  | > 100
Cc1nc(N[C@H](C)c2cccc(C(F)F)c2F)c2cc(C(=O)N3C4CCC3CN(C)C4)c3ncnn3c2n1 [Example 37] |  | < 100 |  | > 100
C[C@@H](Nc1ncnc2c1cc(C(=O)N1CC3(COC3)C1)c1ncnn12)c1cccc(C(F)F)c1F [Example 42] |  | < 100 |  | > 100
Cc1nc(N[C@H](C)c2cccc(C(F)F)c2F)c2cc(C(=O)N(C)C)c3nncn3c2n1 [Example 50, (R)-4-((1-(3-(difluoromethyl)-2-fluorophenyl)ethyl)amino)-N,N,2-trimethyl-[1,2,4]triazolo[4′,3′:1,6]pyrido[2,3-d]pyrimidine-6-carboxamide] |  | < 100 |  | > 100
Cc1nc(N[C@H](C)c2cccc(C(F)F)c2F)c2cc(C(=O)N3CC4(COC4)C3)c3nncn3c2n1 [Example 51] |  | < 100 |  | > 100
Cc1nc(N[C@H](C)c2cccc(C(F)F)c2F)c2cc(C(=O)N(C)C)c3nnnn3c2n1 [Example 55, (R)-6-((1-(3-(difluoromethyl)-2-fluorophenyl)ethyl)amino)-N,N,8-trimethyltetrazolo[1′,5′:1,6]pyrido[2,3-d]pyrimidine-4-carboxamide] |  | < 100 |  | > 100
Cc1nc(N[C@H](C)c2cccc(C(F)F)c2F)c2cc(C(=O)N3CCOCC3)c3nnnn3c2n1 [Example 58] |  | < 100 |  | < 100
Cc1nc(N[C@H](C)c2cccc(C(F)F)c2F)c2cc(C(=O)N3CCCC34CCOC4)c3nnnn3c2n1 (stereo partly drawn) [Example 60] |  | < 100 |  | > 100
CC(=O)NC1(c2cc3c(N[C@H](C)c4cccc(C(F)F)c4F)ncnc3n3cnnc23)CCN(C(C)=O)CC1 [Example 134, (R)—N-(1-acetyl-4-(4-((1-(3-(difluoromethyl)-2-fluorophenyl)ethyl)amino)-[1,2,4]triazolo[4′,3′:1,6]pyrido[2,3-d]pyrimidin-6-yl)piperidin-4-yl)acetamide] |  | < 100 |  | 
CC(=O)N1CCC(c2cc3c(N[C@H](C)c4cccc(C(F)F)c4F)nc(C)nc3n3cnnc23)CC1(C)C (stereo partly drawn) [Example 139] |  | < 100 |  | 
COCC(=O)N1CCC(c2cc3c(N[C@H](C)c4cccc(C(F)F)c4F)nc(C)nc3n3nnnc23)CC1 [Example 144] |  | < 100 |  | 

Further lines, with some results ahead:

IC50 [1] [nM] | IC50 ([1]; read-out: PPI Assay IC50) [nM] | Compound | IC50 (pERK in Hela cells; Table 2, 1 hour with compound) [nM] | IC50 (pERK in Hela cells; Table 1, 1 hour with compound) [nM]
 | < 100 | COCCN1CCN(C(=O)c2cc3c(N[C@H](C)c4cc(N)cc(C(F)(F)F)c4)nc(C)nc3n3ncnc23)CC1 [Example 4] |  | > 100
 | < 100 | Cc1nc(N[C@H](C)c2cc(N)cc(C(F)(F)F)c2)c2cc(C(=O)N3CCN(CCO)CC3)c3ncnn3c2n1 [Example 5] |  | > 100
 | < 100 | Cc1nc(N[C@H](C)c2cccc(C(F)F)c2F)c2cc(C(=O)N3CCOCC3)c3ncnn3c2n1 [Example 11] |  | > 100
 | < 100 | Cc1nc(N[C@H](C)c2cccc(C(F)F)c2F)c2cc(C(=O)N3CCS(=O)(=O)CC3)c3ncnn3c2n1 [Example 18] |  | > 100
 | < 100 | Cc1nc(N[C@H](C)c2cccc(C(F)F)c2F)c2cc(C(=O)N3CCN(C)CC3)c3ncnn3c2n1 [Example 19] |  | > 100
 | < 100 | Cc1nc(N[C@H](C)c2cccc(C(F)F)c2F)c2cc(C(=O)N3CCN(C4COC4)CC3)c3ncnn3c2n1 [Example 24] |  | > 100
 | < 100 | Cc1nc(N[C@H](C)c2cccc(C(F)F)c2F)c2cc(C(=O)N3C[C@H]4COC[C@H]4C3)c3ncnn3c2n1 [Example 29] |  | < 100
 | < 100 | Cc1nc(N[C@H](C)c2cccc(C(F)F)c2F)c2cc(C(=O)N3CCC4(COC4)C3)c3ncnn3c2n1 [Example 33] |  | > 100
 | < 100 | Cc1nc(N[C@H](C)c2cccc(C(F)(F)F)c2C)c2cc(C(=O)N3CC4(COC4)C3)c3ncnn3c2n1 [Example 38] |  | > 100
 | < 100 | Cc1nc(N[C@H](C)c2cccc(C(F)(F)F)c2F)c2cc(C(=O)N3CC4(COC4)C3)c3ncnn3c2n1 [Example 39] |  | > 100
 | < 100 | C[C@@H](Nc1ncnc2c1cc(C(=O)N1C3CC1CN(C)C3)c1ncnn12)c1cccc(C(F)F)c1F [Example 47] |  | > 100
 | < 100 | Cc1nc(N[C@H](C)c2cccc(C(F)F)c2F)c2cc(C3CCSCC3)c3nncn3c2n1 [Example 138] |  | 
> 100 |  | CC(=O)N1CCC(c2cc3c(N[C@H](C)c4cccc(C(F)F)c4F)nc(C)nc3n3c(C)nnc23)CC1 [Example 141] |  | 
 | < 100 | Cc1nc(N[C@H](C)c2cccc(C(F)F)c2F)c2cc(C3CCN(S(C)(=O)=O)CC3)c3nnnn3c2n1 [Example 143] |  | 
